Measurements taken from patent US20100113484A1, “TREATING AGENT OF UROPATHY” (ASKA PHARMACEUTICAL CO., LTD., priority 2006, published 2010).
pIC50: −log10 of the molar value. Read-outs that look alike come from different tables or passages of the source.

Legend:
[1] = target: T1, human recombinant PDE9 protein (Homo sapiens, UniProt O76083); test: Measurement of PDE9-inhibiting activity ([3H]-cGMP hydrolysis); format: biochemical
T1 construct: made in house; host or cells: COS-1 cells, transient transfection with pcDNA 3.1 (+); supernatant of the homogenate, not purified
Description: Based on the base sequence of hsPDE9A1 registered with GenBank database (accession No.: AF048837), hsPDE9A1 fragment was amplified by polymerase chain reaction under the following conditions, using the following sequence (Amasham Pharmacia Biotech) as the primer and Human Prostate […] cDNA library (CLONTECH) as the template DNA, with Pfu Turbo DNA polymerase ([…]):
PCR condition: [95° C., 5 min]×1 cycle, [(95° C., 1 min), (58° C., 2 min), (72° C., 3 min)]×25 cycles, [72° C., 10 min]×1 cycle
Thus obtained hsPDE9A1 fragment was given a restricted enzymatic treatment with NheI and NotI, and thereafter inserted into pcDNA 3.1 (+) expression vector (Invitrogen) to let it serve as a human PDE9 expression vector.
(§1) Human PDE9 expression vector-transformed Escherichia coli was mass incubated to produce a large amount of human PDE9 expression vector, which was transiently transfected into COS-1 cells, with LIPOFECTAMINE 2000 Reagent (GIBCO). The cells were homogenized in ice-cooled buffer A (40 mmol/L Tris-HCl, pH7.5, 15 mmol/L benzamidine, 15 mmol/L 2-mercaptoethanol, 1 μg/mL Pepstatin A, 1 μg/mL Leupeptin, 5 mmol/L EDTA) and centrifuged at 4° C., 14,000×g for 10 minutes. The supernatant was isolated to provide human recombinant PDE9 protein solution.
This mixed solution was incubated at 30° C. for 30 minutes and the enzymatic reaction of PDE9 was terminated by heating the system in boiling water for 90 seconds. Returning the system to room temperature, 50 μL of Snake venom (SIGMA: 1 mg/mL) was added, followed by 10 minutes' incubation at 30° C., to convert the [^3H]-5′-GMP produced in the previous reaction to [^3H]-guanosine. […] Thereafter [^3H]-guanosine was eluted with 3 mL of 3 mol/L aqueous ammonia and its radiation activity was measured with liquid scintillation counter.
PDE9 inhibition of the tested compound can be calculated by the following formula: […]
From the percent inhibition at various concentration levels of each tested compound, its IC50 value against PDE9 can be determined.

[2] = target: T2, human recombinant PDE5 protein (Homo sapiens, UniProt O76074); test: Measurement of PDE5-inhibiting activity; format: biochemical; settings: Tables A and C; read-out: Inhibiting Activity (IC50 value) PDE5
T2 construct: made in house; host or cells: COS-1 cells, transient transfection with pcDNA 3.1 (+); supernatant of the homogenate, not purified
Description: PCR condition: [94° C., 2 min]×1 cycle, [(94° C., 30 sec), (65° C., 30 sec), (68° C., 3 min)]×25 cycles, [68° C., 6 min]×1 cycle
Thus obtained hsPDE5A1 fragment was given a restricted enzymatic treatment with XBaI and EcoRI, and thereafter inserted into pcDNA 3.1 (+) expression vector (Invitrogen) to let it serve as a human PDE5 expression vector.
as §1, with “PDE5” for “PDE9”, “A” for “A (40 mmol/L Tris-HCl, pH7.5, 15 mmol/L benzamidine, 15 mmol/L 2-mercaptoethanol, 1 μg/mL Pepstatin A, 1 μg/mL Leupeptin, 5 mmol/L EDTA)”

[3] = system: partial urethra obstruction model in guinea pigs; test: Dysuria pathological model: partial urethra obstruction model, cystometry; format: in vivo, Hartley female guinea pigs; settings: guinea pig, i.v., 1 mg/kg
Description: Three-four weeks old Hartley female guinea pigs (Japan SLC, Inc.) were given celiotomy under anesthesia with pentobarbital (30 mg/kg i.p.) and in their urethra to the peripheral side by 1-2 mm from the bladder neck, each a polyethylene tube of 1.4 mm in width and 2.0 mm in inner diameter was placed. After closing the wound, the guinea pigs were bred for at least 3 weeks to produce partial urethra obstruction model in guinea pigs in which occurrence of intravesical pressure rise not accompanied by micturition (uninhibited contraction) and residual urine were observed.
The model was catheterized under anesthesia with urethane (1 g/kg i.p.) at the apex of urinary bladder and right jugular vein for cystometrography and intravenous administration, respectively. The other end of the bladder catheter was connected to a pressure transducer and infusion pump via a three way stop-cock, and physiological saline was continuously infused into the bladder through the infusion pump at a rate of 0.4 mL/min to induce micturition reflex. Immediately after the micturition reflex was induced, infusion of physiological saline into the bladder was stopped. The intravesical pressure at the time the micturition reflex was induced was measured with the pressure transducer, and the obtained cystometrogram was recorded with pen recorder. The urine voided was collected with disposable type weighing dish and its weight was measured. Further the physiological saline remained in the bladder was sucked with syringe via the bladder catheter and the residual urine volume was measured. The operations of suspending the infusion of physiological saline upon induction of micturition reflex, and about 1 minute thereafter resuming the infusion of physiological saline to induce micturition reflex were repeated plural times (generally 4 times) to stabilize the micturition reflex.
After stabilizing the micturition reflex, a compound solution (prepared by dissolving the compound or methanesulfonic acid salt thereof in DMSO and diluting it with physiological saline or distilled water) or physiological saline was administered into the vein at a volume of 10 mL/kg over 4 minutes, and simultaneously the above-described micturition reflex operations were repeated until 30 minutes passed after initiation of the administration, while measuring the intravesical pressure and the volumes of micturition and residual urine. Also the frequency of uninhibited contraction occurrence during the above-described operations was recorded.

[4] = Tables A and C, read-out: Inhibiting Activity (IC50 value) PDE9
[5] = Table B, read-out: Inhibiting Activity IC50 PDE9

T1 sequence (O76083 whole entry): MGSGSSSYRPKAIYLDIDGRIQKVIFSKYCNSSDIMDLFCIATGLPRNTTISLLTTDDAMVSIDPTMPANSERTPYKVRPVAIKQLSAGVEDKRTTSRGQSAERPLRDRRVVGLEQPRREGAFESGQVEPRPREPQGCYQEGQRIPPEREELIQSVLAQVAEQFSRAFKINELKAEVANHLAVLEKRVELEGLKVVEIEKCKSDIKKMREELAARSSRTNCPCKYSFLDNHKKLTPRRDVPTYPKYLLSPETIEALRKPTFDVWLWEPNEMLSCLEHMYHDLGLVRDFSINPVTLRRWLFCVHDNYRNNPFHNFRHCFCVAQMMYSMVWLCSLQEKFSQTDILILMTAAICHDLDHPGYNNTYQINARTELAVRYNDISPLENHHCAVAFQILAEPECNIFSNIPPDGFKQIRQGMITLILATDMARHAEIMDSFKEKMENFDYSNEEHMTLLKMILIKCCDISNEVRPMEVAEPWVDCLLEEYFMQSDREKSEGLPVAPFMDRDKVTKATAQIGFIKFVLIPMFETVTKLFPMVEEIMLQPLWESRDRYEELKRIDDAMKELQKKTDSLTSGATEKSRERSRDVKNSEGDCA

| Molecule | pIC50 [1, 4] | pIC50 [2] | further results |
| --- | --- | --- | --- |
| 2-(3-Chloro-4-fluorobenzyl)-5-methyl-4-oxo-3,4-dihydrothieno-[2,3-d]pyrimidine-6-carboxylic acid [A-10] | 7.42 | 5.47 |  |
| 2-(5-Chlorothiophen-2-ylmethyl)-5-methyl-4-oxo-3,4-dihydrothieno[2,3-d]pyrimidine-6-carboxylic acid [A-3] | 7.47 | 5.16 |  |
| Cc1c(C(=O)O)sc2nc(Cc3ccsc3)[nH]c(=O)c12 [A-1, 5-Methyl-4-oxo-2-(thiophen-3-ylmethyl)-3,4-dihydrothieno[2,3-d]-pyrimidine-6-carboxylic acid] | 7.66 | 4.75 |  |
| Cc1c(C(=O)O)sc2nc(Cc3cccc(Br)c3)[nH]c(=O)c12 [A-5, 2-(3-Bromobenzyl)-5-methyl-4-oxo-3,4-dihydrothieno[2,3-d]-pyrimidine-6-carboxylic acid] | 7.62 | 5.35 |  |
| Cc1c(C(=O)O)sc2nc(Cc3cccc(C(F)(F)F)c3)[nH]c(=O)c12 [A-6, 5-Methyl-4-oxo-2-(3-trifluoromethylbenzyl)-3,4-dihydrothieno[2,3-d]pyrimidine-6-carboxylic acid] | 7.47 | 4.65 |  |
| Cc1c(C(=O)O)sc2nc(Cc3ccccc3SC(F)(F)F)[nH]c(=O)c12 [A-8, 5-Methyl-4-oxo-2-(2-trifluoromethylthiobenzyl)-3,4-dihydrothieno[2,3-d]pyrimidine-6-carboxylic acid] | 7.34 | 4.70 |  |
| Cc1c(C(=O)O)sc2nc(Cc3ccc(F)c(C(F)(F)F)c3)[nH]c(=O)c12 [A-9, 2-(4-Fluoro-3-trifluoromethylbenzyl)-5-methyl-4-oxo-3,4-dihydrothieno[2,3-d]pyrimidine-6-carboxylic acid] | 7.36 | 4.72 |  |
| Cc1c(C(=O)O)sc2nc(Cc3cc(Cl)ccc3F)[nH]c(=O)c12 [A-11, 2-(5-Chloro-2-fluorobenzyl)-5-methyl-4-oxo-3,4-dihydrothieno-[2,3-d]pyrimidine-6-carboxylic acid] | 7.66 | 5.24 |  |
| Cc1c(C(=O)O)sc2nc(Cc3cc(F)ccc3F)[nH]c(=O)c12 [A-12, 2-(2,5-Difluorobenzyl)-5-methyl-4-oxo-3,4-dihydrothieno-[2,3-d]pyrimidine-6-carboxylic acid] | 7.38 | 4.70 |  |
| Cc1c(C(=O)O)sc2nc(CC3=CCCC3)[nH]c(=O)c12 [A-13, 2-(Cyclopent-1-enylmethyl)-5-methyl-4-oxo-3,4-dihydrothieno-[2,3-d]pyrimidine-6-carboxylic acid] | 7.55 | 5.07 |  |
| Cc1c(C(=O)O)sc2nc(CC3=CCCCC3)[nH]c(=O)c12 [A-14, 2-(Cyclohex-1-enylmethyl)-5-methyl-4-oxo-3,4-dihydrothieno-[2,3-d]pyrimidine-6-carboxylic acid] | 7.27 | 5.79 |  |
| O=C(O)c1cc2c(=O)[nH]c(Cc3ccsc3)nc2s1 [A-15, 4-Oxo-2-(thiophen-3-ylmethyl)-3,4-dihydrothieno-[2,3-d]pyrimidine-6-carboxylic acid] | 7.85 | 4.46 |  |
| O=C(O)c1cc2c(=O)[nH]c(Cc3cccs3)nc2s1 [A-16, 4-Oxo-2-(thiophen-2-ylmethyl)-3,4-dihydrothieno[2,3-d]-pyrimidine-6-carboxylic acid] | 7.82 | 4.38 |  |
| O=C(O)c1cc2c(=O)[nH]c(Cc3ccccc3)nc2s1 [A-17, 2-Benzyl-4-oxo-3,4-dihydrothieno[2,3-d]pyrimidine-6-carboxylic acid] | 7.72 | 4.46 |  |
| O=C(O)c1cc2c(=O)[nH]c(Cc3cccc(Cl)c3)nc2s1 [A-18, 2-(3-Chlorobenzyl)-4-oxo-3,4-dihydrothieno[2,3-d]-pyrimidine-6-carboxylic acid] | 8.00 | 4.80 |  |
| O=C(O)c1cc2c(=O)[nH]c(Cc3cccc(C(F)(F)F)c3)nc2s1 [A-19, 4-Oxo-2-(3-trifluoromethylbenzyl)-3,4-dihydrothieno-[2,3-d]pyrimidine-6-carboxylic acid] | 7.82 | 4.52 |  |
| O=C(O)c1cc2c(=O)[nH]c(Cc3ccc(Cl)c(Cl)c3)nc2s1 [A-20, 2-(3,4-Dichlorobenzyl)-4-oxo-3,4-dihydrothieno[2,3-d]-pyrimidine-6-carboxylic acid] | 8.05 | 5.64 |  |
| Cc1c(C(=O)O)sc2nc(Cc3ccsc3)[nH]c(=S)c12 [A-22, 5-Methyl-2-(thiophen-3-ylmethyl)-4-thioxo-3,4-dihydrothieno-[2,3-d]pyrimidine-6-carboxylic acid] | 8.05 | 5.79 |  |
| Cc1c(C(=O)O)sc2nc(Cc3cccs3)[nH]c(=S)c12 [A-23, 5-Methyl-2-(thiophen-2-ylmethyl)-4-thioxo-3,4-dihydrothieno-[2,3-d]pyrimidine-6-carboxylic acid] | 7.51 | 5.81 |  |
| COc1ccc(Cc2nc3cc(C(=O)O)ccc3c(=O)[nH]2)cc1OC [B-3, 2-(3,4-Dimethoxybenzyl)-4-oxo-3,4-dihydroquinazoline-7-carboxylic acid] |  |  | Inhibiting Activity inhibition ratio at 1 μM PDE9 ([1]; Table B): inhibition ratio = 11% |
| COc1ccccc1Cc1nc2cc(C(=O)O)ccc2c(=O)[nH]1 [B-4, 2-(2-Methoxybenzyl)-4-oxo-3,4-dihydroquinazoline-7-carboxylic acid] |  |  | pIC50 [1, 5]: 5.89 |
| COc1cccc(Cc2nc3cc(C(=O)O)ccc3c(=O)[nH]2)c1 [B-5, 2-(3-Methoxybenzyl)-4-oxo-3,4-dihydroquinazoline-7-carboxylic acid] |  |  | Inhibiting Activity inhibition ratio at 1 μM PDE9 ([1]; Table B): inhibition ratio = 41% |
| O=C(O)c1ccc2c(=O)[nH]c(Cc3ccccn3)nc2c1 [B-6, 4-Oxo-2-(2-pyridylmethyl)-3,4-dihydroquinazoline-7-carboxylic acid] |  |  | pIC50 [1, 5]: 5.89 |
| O=C(O)c1ccc2c(=O)[nH]c(Cc3cccnc3)nc2c1 [B-7, 4-Oxo-2-(3-pyridylmethyl)-3,4-dihydroquinazoline-7-carboxylic acid] |  |  | Inhibiting Activity inhibition ratio at 1 μM PDE9 ([1]; Table B): inhibition ratio = 30% |
| O=C(O)c1ccc2c(=O)[nH]c(Cc3cccs3)nc2c1 [B-8, 4-Oxo-2-(2-thienylmethyl)-3,4-dihydroquinazoline-7-carboxylic acid] |  |  | pIC50 [1, 5]: 7.03 |
| Cn1c(Cc2cccc(Cl)c2)nc2cc(C(=O)O)ccc2c1=O [B-9, 2-(3-Chlorobenzyl)-3-methyl-4-oxo-3,4-dihydroquinazoline-7-carboxylic acid] |  |  | pIC50 [1, 5]: 5.33 |
| CC(C)c1ncc2c(=O)[nH]c3cc(Cl)ccc3n12 [C-1 (methanesulfonate)] |  |  | Frequency of occurrence of uninhibited contraction volume change [3]: +0.77 times/min; Residual urine volume volume change [3]: 0.22 mL |
